Assay results from patent US10889569B2, “Condensed ring group azacyclobutyl triazole derivative, preparation method therefor and use thereof in medicine” (Jiangsu Hengrui Medicine Co., Ltd., priority 2016, dated 2021).

Columns and labels:
[1] = Brain permeability of rats (Kp-unbound); format: in vivo; details: both sexes, rat, not told, po; SD rats, 10 mg/kg intragastrically, 0.5 h after administration; read-out: Kp-unbound (blood-brain permeability index)
Description: The activity of the compounds of the present invention on the brain permeability of rats was determined by the following experimental method:
Four SD rats (half male and half female) were maintained in a 12 hours light/12 hours dark cycle, in a constant temperature of 24±3° C. and a humidity of 50-60%, and free access to food and water. The compounds were administered intragastrically to the rats after fasting overnight. The administration dosage was 10 mg/kg. The administration group was sacrificed after blood collection at 0.5 h to 2 h after administration (blood volume: 0.5 ml). The blood sample was stored in heparinized tubes, and centrifuged for 10 minutes at 3500 rpm to separate the plasma, which was marked as plasma 1 and stored at […]. The animal was decapitated after sacrificing, and the brain tissue was collected. The residual blood in the brain tissue was sucked with a filter paper, which was marked as brain tissue 1, and stored at 0° C. ten minutes later. Another three animals were treated by the same method as that of administration group to obtain blank plasma and brain tissue 2.
The drug compounds were diluted to 50 mM with DMSO to obtain a stock solution I. An appropriate amount of stock solution I was diluted with methanol to obtain a diluted stock solution II (200 μM). 10 μl of stock solution II was moved to a 1.5 ml Eppendorf tube, and then added with 990 μl of blank plasma, and mixed well to obtain 2 μM of plasma sample 2 (concentration of DMSO≤0.2%), which was used for the determination of plasma protein binding rate at this concentration. […]
The equilibrium dialysis tube of RED Device Inserts was inserted into a 96-well plate. […] The chromatographic peak area ratios of the total drug (plasma chamber) and the free drug (buffer chamber) to the internal standard were determined directly by the LC/MS/MS method established above respectively, and the free percent (fu plasma %) was calculated.
Brain tissue protein binding equilibrium dialysis process: the blank brain tissue 2 was formulated into a blank brain homogenate with PBS (pH 7.4) according to a dilution factor of 11, and added with compound to formulate a 2 μM brain homogenate. Other procedures were the same with that of plasma protein binding, the chromatographic peak area ratios of the total drug (brain homo chamber) and the free drug (buffer chamber) to the internal standard were determined by the established LC/MS/MS method respectively, and the free percent (fu brain hom %) was calculated.
1) The drug concentrations in plasma 1 and brain tissue 1 of rats 0.5 h after administration were determined by the established LC/MS/MS method respectively, which were the total concentration (Ctotal, p and Ctotal, b); […]

human OTR = human OTR (Homo sapiens, UniProt P30559); assay: Inhibition activity on human OTR (Fluo-4 calcium assay, HEK293/human OTR stably transfected cells); format: cell-based; details: oxytocin 3 nM
Procedure, shortened: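 HEK293 cells stably expressing human OTR, loaded with Fluo-4 for 30 min at 37 °C, were preincubated 10 min at room temperature with compound (stocks 10^1–10^6 nM). Oxytocin (3 nM as added) then triggered calcium signal, read immediately at 494/516; IC50 fitted from fluorescence versus concentration.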

[2] = Pharmacokinetics assay in rats after intragastrical administration; format: in vivo, SD rats; details: Sprague-Dawley, rat, plasma, po, 30 mg/kg, intragastric, male rats
Description: Male SD rats were used as test animals. The drug concentration in plasma at different time points was determined by LC/MS/MS method after intragastrical administration of the compounds of Examples 2, 17, 34, 37, 38, 39 and 43 to rats. The pharmacokinetic behavior of the compounds of the present invention was studied and evaluated in rats.
Twenty-one healthy adult male Sprague-Dawley (SD) rats were purchased from Shanghai Jiesijie Laboratory Animal Co., LTD, with Certificate No.: SCXK (Shanghai) 2013-0006, and equally divided into 7 groups (3 rats per group).
A certain amount of the test compound was weighed, and added with 2.5% by volume of DMSO and 97.5% by volume of 10% solutol HS-15 to formulate a […] colorless, clear and transparent solution.
After an overnight fast, SD rats were administered intragastrically the test compounds at an administration dosage of 30.0 mg/kg and an administration volume of 10.0 mL/kg.
The rats were intragastrically administered the compounds of Examples 2, 17, 34, 37, 38, 39 and 43. 0.2 mL of blood was taken from the orbital sinus before administration and at 0.5, 1.0, 2.0, 4.0, 6.0, 8.0, 11.0 and 24.0 hours after administration. The samples were stored in heparinized tubes, and centrifuged for 10 minutes at 4° C. at 3500 rpm to separate the plasma. The plasma samples were stored at −20° C. The rats were fed 2 hours after administration.
The content of the test compounds in the plasma of rats after intragastrical administration of the test compounds at different concentrations was determined: 50 μL of rat plasma at each time after administration was taken, added with 50 μL of the internal standard solution of camptothecin (100 ng/mL) and 150 μL of acetonitrile, vortex-mixed for 5 minutes, and centrifuged for 10 minutes (4000 rpm). 3 μL of the supernatant was taken from the plasma samples for LC/MS/MS analysis.

oxytocin receptor [3] = target: T1, oxytocin receptor (Homo sapiens (Human), UniProt P30559); details: cited from earlier work
T1 sequence (P30559 whole entry): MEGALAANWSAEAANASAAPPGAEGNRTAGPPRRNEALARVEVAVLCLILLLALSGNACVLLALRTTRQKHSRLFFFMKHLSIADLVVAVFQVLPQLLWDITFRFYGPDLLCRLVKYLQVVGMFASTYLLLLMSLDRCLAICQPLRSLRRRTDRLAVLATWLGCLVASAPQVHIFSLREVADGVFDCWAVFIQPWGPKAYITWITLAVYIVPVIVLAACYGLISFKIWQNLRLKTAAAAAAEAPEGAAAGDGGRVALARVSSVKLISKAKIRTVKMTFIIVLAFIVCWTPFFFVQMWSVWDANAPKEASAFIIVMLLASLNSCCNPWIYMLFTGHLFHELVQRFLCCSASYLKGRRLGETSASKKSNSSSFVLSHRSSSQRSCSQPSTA

oxytocin receptor [4] = target: oxytocin receptor (Rattus norvegicus (Rat), UniProt P70536); details: intraventricular and intrathecal injection; cited from earlier work
Sequence of oxytocin receptor (Rattus norvegicus (Rat), UniProt P70536) (P70536 whole entry): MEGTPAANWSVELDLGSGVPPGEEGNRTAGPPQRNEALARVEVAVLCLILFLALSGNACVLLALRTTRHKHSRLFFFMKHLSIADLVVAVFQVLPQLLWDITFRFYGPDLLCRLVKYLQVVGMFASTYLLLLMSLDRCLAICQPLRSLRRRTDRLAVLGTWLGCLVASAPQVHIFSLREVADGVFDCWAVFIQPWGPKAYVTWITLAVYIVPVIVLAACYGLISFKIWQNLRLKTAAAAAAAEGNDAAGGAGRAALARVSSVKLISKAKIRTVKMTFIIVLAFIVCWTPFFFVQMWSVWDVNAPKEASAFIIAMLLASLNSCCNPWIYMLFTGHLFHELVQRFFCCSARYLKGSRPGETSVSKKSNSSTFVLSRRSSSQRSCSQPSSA

oxytocin receptor [5] = target: T1, oxytocin receptor; details: orally 400 mg or 800 mg, patient with prospermia, phase II; cited from earlier work

SMILES: COCc1nnc(N2CC(Oc3ccc(F)cc3Cl)C2)n1-c1ccc(OC)nc1 [5-(3-(3-(2-Chloro-4-fluorophenoxy)azetidin-1-yl)-5-(methoxymethyl)-4H-1,2,4-triazol-4-yl)-2-methoxypyridine, reference compound]
- Kp at 0.5 h [1]: 0.064

SMILES: COc1ccc(-n2c(COC(F)F)nnc2N2CC(c3cccc4cc(F)ccc34)C2)cn1 [Example 38, 5-(3-((Difluoromethoxy)methyl)-5-(3-(6-fluoronaphthalen-1-yl)azetidin-1-yl)-4H-1,2,4-triazol-4-yl)-2-methoxypyridine]
- Kp at 0.5 h [1]: 0.175
- IC50 (human OTR): 2 nM
- Vd/F ([2]; read-out: Apparent distribution volume Vz/F): 27.8 ± 22.8 L/kg
- AUC ([2]; read-out: Area under curve AUC): 5630 ± 3010 ng·h/mL
- CL/F ([2]; read-out: Clearance CLz/F): 104 ± 44 mL/min/kg
- half-life ([2]; read-out: Half-life T1/2 (converted)): 2.83 ± 1.9 h
- Cmax ([2]; read-out: Plasma concentration Cmax): 1060 ± 270 ng/mL
- MRT ([2]; read-out: Residence time MRT): 4.19 ± 1.25 h

SMILES: CC[C@H](C)[C@@H]1C(=O)N[C@H](C2Cc3ccccc3C2)C(=O)N1[C@@H](C(=O)N1CCOCC1)c1ccc(C)nc1C [GSK557296]
- Efficacy after oral administration in phase II clinical trials (oxytocin receptor [3]): did not show corresponding efficacy
- Ejaculation behavior of rats (oxytocin receptor [4]): can effectively inhibit the ejaculation behavior of rats only when being administered at specific central sites

SMILES: COCc1nnc(N2CC(Oc3ccc(F)cc3Cl)C2)n1-c1ccc(OC)nc1 [IX-01]
- Vaginal ejaculation latency (oxytocin receptor [5]): can significantly prolong the vaginal ejaculation latency of the patient
